Source: patent US4321381A, “Ergot derivatives” (Farmitalia Carlo Erba S.p.A., priority 1978, dated 1982)

Columns and labels:
[1] = tested on: spontaneously hypertensive male rats, strain MHS; test: Anti-hypertensive activity in the spontaneously hypertensive rat (MHS): blood pressure and heart rate at the tail; assay type: in vivo
Procedure: 1. Spontaneously Hypertensive Rat (MHS)
Four spontaneously hypertensive male rats, strain MHS, weight 250 to 300 g for each group were used. The animals were treated for four consecutive days. The drugs were administered by gastric gavage while suspended in 5% arabic gum (0.2 ml/100 g body weight), and blood pressure (BP) and heart rate (HR) were measured at the tail by BP Recorder W+W. Blood pressure and heart rate were measured on the first and fourth day of treatment 1 hour before and 1 and 5 hours after drug administration.

[2] = Acute toxicity (LD50) in mice; assay type: in vivo, mouse; conditions: mouse, in vivo; male mice; oral; observed for seven days
Excerpt: Evaluation of the Toxicity (LD50)
Ten male mice for each group were orally treated with drugs at different dose levels for the determination of lethal dose 50 (LD50).

normotensive rats = test: Blood pressure and heart rate in the conscious normotensive rat (NR); assay type: in vivo; conditions: 5 mg/kg os
Procedure: Blood pressure recordings have been made in conscious normotensive unrestrained rats weighing approximately 300 g, via a catheter chronically inserted into the left common carotid artery. Implantation of arterial cannula was made under sodium pentobarbital anesthesia (50 mg/kp i.p.) A 1 cm long incision was made through the previously shaved ventral surface of the neck and the tissues overlying the trachea parted by blunt dissection to reveal the carotid artery. The polyethylene catheter used was made with PE 50 tubing, previously filled with saline containing 250 I.U./ml heparin. The tip of the cannula was pushed at least 2 cm inside the vessel toward the heart. The cannula was then firmly tied and passed beneath the skin to emerge from a small incision in the back of the neck. During the post-operative period and before the start of each recording session, the cannula was flushed through daily with saline containing heparin (250 I.U./ml). The experiments were performed two days after surgery. Drugs were administered by gastric gavage.

CN1C[C@H](CC(C#N)C(N)=O)C[C@@H]2c3cccc4[nH]c(Br)c(c34)C[C@H]21 (stereo partly drawn) [Example 1139, 2-Cyano-3-(2-bromo-6'-methylergoline-8'β)-propionamide]
Change in BP, 1 hr after dose, first day ([1]; 2 mg/kg os): -13 mm Hg | Change in HR, 1 hr after dose, first day ([1]; 2 mg/kg os): +7 b/min | Change in HR, 5 hr after dose, first day ([1]; 2 mg/kg os): +12 b/min | Change in BP, 5 hrs after dose, first day ([1]; 2 mg/kg os): -23 mm Hg | Change in BP, 1 hr after dose, fourth day ([1]; 2 mg/kg os): -18 mm Hg | Change in HR, 1 hr after dose, fourth day ([1]; 2 mg/kg os): +47 b/min | Change in HR, 5 hr after dose, fourth day ([1]; 2 mg/kg os): +35 b/min | Change in BP, 5 hrs after dose, fourth day ([1]; 2 mg/kg os): -12 mm Hg | Change in BP, 1 hr after dose, first day ([1]; 5 mg/kg os): -25 mm Hg | Change in HR, 1 hr after dose, first day ([1]; 5 mg/kg os): +28 b/min | Change in HR, 5 hr after dose, first day ([1]; 5 mg/kg os): +13 b/min | Change in BP, 5 hrs after dose, first day ([1]; 5 mg/kg os): -24 mm Hg | Change in BP, 1 hr after dose, fourth day ([1]; 5 mg/kg os): -12 mm Hg | Change in HR, 1 hr after dose, fourth day ([1]; 5 mg/kg os): -10 b/min | Change in HR, 5 hr after dose, fourth day ([1]; 5 mg/kg os): -12 b/min | Change in BP, 5 hrs after dose, fourth day ([1]; 5 mg/kg os): -13 mm Hg | LD50 at 168 h [2]: 125 mg/kg | Change in Blood Pressure after Treatment, 30' (normotensive rats): -5 mm Hg | Change in heart rate after treatment, 30' (normotensive rats): 0 b/min | Change in Blood Pressure after Treatment, 60' (normotensive rats): -12 mm Hg | Change in heart rate after treatment, 60' (normotensive rats): +10 b/min | Change in Blood Pressure after Treatment, 120' (normotensive rats): -12 mm Hg | Change in heart rate after treatment, 120' (normotensive rats): +10 b/min | Change in Blood Pressure after Treatment, 180' (normotensive rats): -10 mm Hg | Change in heart rate after treatment, 180' (normotensive rats): -5 b/min | Change in Blood Pressure after Treatment, 240' (normotensive rats): -5 mm Hg | Change in heart rate after treatment, 240' (normotensive rats): 0 b/min | Change in Blood Pressure after Treatment, 360' (normotensive rats): 0 mm Hg | Change in heart rate after treatment, 360' (normotensive rats): +15 b/min | Change in Blood Pressure after Treatment, 24h (normotensive rats): +2 mm Hg | Change in heart rate after treatment, 24h (normotensive rats): 0 b/min

NNc1nncc2ccccc12 [Hydralazine, hydralazine, reference compound]
Change in BP, 1 hr after dose, first day ([1]; 2 mg/kg os): +2 mm Hg | Change in HR, 1 hr after dose, first day ([1]; 2 mg/kg os): +10 b/min | Change in HR, 5 hr after dose, first day ([1]; 2 mg/kg os): -28 b/min | Change in BP, 5 hrs after dose, first day ([1]; 2 mg/kg os): +18 mm Hg | Change in BP, 1 hr after dose, fourth day ([1]; 2 mg/kg os): +7 mm Hg | Change in HR, 1 hr after dose, fourth day ([1]; 2 mg/kg os): +43 b/min | Change in HR, 5 hr after dose, fourth day ([1]; 2 mg/kg os): +23 b/min | Change in BP, 5 hrs after dose, fourth day ([1]; 2 mg/kg os): +15 mm Hg | Change in BP, 1 hr after dose, first day ([1]; 5 mg/kg os): -52 mm Hg | Change in HR, 1 hr after dose, first day ([1]; 5 mg/kg os): -45 b/min | Change in HR, 5 hr after dose, first day ([1]; 5 mg/kg os): +12 b/min | Change in BP, 5 hrs after dose, first day ([1]; 5 mg/kg os): -38 mm Hg | Change in BP, 1 hr after dose, fourth day ([1]; 5 mg/kg os): -7 mm Hg | Change in HR, 1 hr after dose, fourth day ([1]; 5 mg/kg os): +10 b/min | Change in HR, 5 hr after dose, fourth day ([1]; 5 mg/kg os): +12 b/min | Change in BP, 5 hrs after dose, fourth day ([1]; 5 mg/kg os): -8 mm Hg | LD50 at 168 h [2]: 122 mg/kg | Change in Blood Pressure after Treatment, 30' (normotensive rats): -19 mm Hg | Change in heart rate after treatment, 30' (normotensive rats): +70 b/min | Change in Blood Pressure after Treatment, 60' (normotensive rats): -13 mm Hg | Change in heart rate after treatment, 60' (normotensive rats): +40 b/min | Change in Blood Pressure after Treatment, 120' (normotensive rats): -10 mm Hg | Change in heart rate after treatment, 120' (normotensive rats): +21 b/min | Change in Blood Pressure after Treatment, 180' (normotensive rats): -7 mm Hg | Change in heart rate after treatment, 180' (normotensive rats): +9 b/min | Change in Blood Pressure after Treatment, 240' (normotensive rats): -5 mm Hg | Change in heart rate after treatment, 240' (normotensive rats): +21 b/min | Change in Blood Pressure after Treatment, 360' (normotensive rats): -7 mm Hg | Change in heart rate after treatment, 360' (normotensive rats): +12 b/min | Change in Blood Pressure after Treatment, 24h (normotensive rats): 0 mm Hg | Change in heart rate after treatment, 24h (normotensive rats): +3 b/min

CCCN1C[C@H](CC(C#N)C(=O)NCC)C[C@@H]2c3cccc4[nH]cc(c34)C[C@H]21 (stereo partly drawn) [355/1281, 2-Cyano-3-(6'-n-propylergoline-8'β)-N-ethyl-propionamide]
Change in BP, 1 hr after dose, first day ([1]; 5 mg/kg os): -25 mm Hg | Change in BP, 5 hrs after dose, first day ([1]; 5 mg/kg os): -15 mm Hg | Change in BP, 1 hr after dose, fourth day ([1]; 5 mg/kg os): -30 mm Hg | Change in BP, 5 hrs after dose, fourth day ([1]; 5 mg/kg os): -35 mm Hg

CCNC(=O)C(C#N)CC1CC2c3cccc4[nH]cc(c34)CC2N(CC2CC2)C1 (stereo not drawn) [355/1324, 2-Cyano-3-(6'-methylcyclopropylergoline-8β)-N-ethylpropionamide]
Change in BP, 1 hr after dose, first day ([1]; 5 mg/kg os): -20 mm Hg | Change in BP, 5 hrs after dose, first day ([1]; 5 mg/kg os): -40 mm Hg | Change in BP, 1 hr after dose, fourth day ([1]; 5 mg/kg os): -40 mm Hg | Change in BP, 5 hrs after dose, fourth day ([1]; 5 mg/kg os): -35 mm Hg

C=CCN1C[C@H](CC(C#N)C(N)=O)C[C@@H]2c3cccc4[nH]cc(c34)C[C@H]21 (stereo partly drawn) [355/1266, 2-Cyano-3-(6'-allylergoline-8'β)-propionamide]
Change in BP, 1 hr after dose, first day ([1]; 2 mg/kg os): -14 mm Hg | Change in BP, 5 hrs after dose, first day ([1]; 2 mg/kg os): -15 mm Hg | Change in BP, 1 hr after dose, fourth day ([1]; 2 mg/kg os): -25 mm Hg | Change in BP, 5 hrs after dose, fourth day ([1]; 2 mg/kg os): -45 mm Hg | Change in BP, 1 hr after dose, first day ([1]; 5 mg/kg os): -14 mm Hg | Change in BP, 5 hrs after dose, first day ([1]; 5 mg/kg os): -10 mm Hg | Change in BP, 1 hr after dose, fourth day ([1]; 5 mg/kg os): -35 mm Hg | Change in BP, 5 hrs after dose, fourth day ([1]; 5 mg/kg os): -60 mm Hg

C=CCN1C[C@H](CC(C#N)C(=O)NCC)C[C@@H]2c3cccc4[nH]cc(c34)C[C@H]21 (stereo partly drawn) [355/1320, 2-Cyano-3-(6'-allylergoline-8'β)-N-ethylpropionamide]
Change in BP, 1 hr after dose, first day ([1]; 5 mg/kg os): -30 mm Hg | Change in BP, 5 hrs after dose, first day ([1]; 5 mg/kg os): -20 mm Hg | Change in BP, 1 hr after dose, fourth day ([1]; 5 mg/kg os): -20 mm Hg | Change in BP, 5 hrs after dose, fourth day ([1]; 5 mg/kg os): -15 mm Hg

CCCN1C[C@H](CC(C#N)C(N)=O)C[C@@H]2c3cccc4[nH]cc(c34)C[C@H]21 (stereo partly drawn) [355/1282, 2-Cyano-3-(6'n-propylergoline-8'β)-propionamide]
Change in BP, 1 hr after dose, first day ([1]; 2 mg/kg os): -20 mm Hg | Change in BP, 5 hrs after dose, first day ([1]; 2 mg/kg os): -10 mm Hg | Change in BP, 1 hr after dose, fourth day ([1]; 2 mg/kg os): -15 mm Hg | Change in BP, 5 hrs after dose, fourth day ([1]; 2 mg/kg os): -25 mm Hg | Change in BP, 1 hr after dose, first day ([1]; 5 mg/kg os): -40 mm Hg | Change in BP, 5 hrs after dose, first day ([1]; 5 mg/kg os): -45 mm Hg | Change in BP, 1 hr after dose, fourth day ([1]; 5 mg/kg os): -25 mm Hg | Change in BP, 5 hrs after dose, fourth day ([1]; 5 mg/kg os): -30 mm Hg

N#CC(CC1CC2c3cccc4[nH]cc(c34)CC2N(CC2CC2)C1)C(N)=O (stereo not drawn) [355/1323, 2-Cyano-3-(6'-methylcyclopropylergoline-8'β)-propionamide]
Change in BP, 1 hr after dose, first day ([1]; 5 mg/kg os): -15 mm Hg | Change in BP, 5 hrs after dose, first day ([1]; 5 mg/kg os): -20 mm Hg | Change in BP, 1 hr after dose, fourth day ([1]; 5 mg/kg os): -20 mm Hg | Change in BP, 5 hrs after dose, fourth day ([1]; 5 mg/kg os): -30 mm Hg

CCNC(=O)C(C#N)C[C@@H]1C[C@@H]2c3cccc4[nH]cc(c34)C[C@H]2N(C(C)C)C1 (stereo partly drawn) [Example 38, 2-Cyano-3-(6'-isopropylergoline-8'β)-N-ethyl propionamide]
Change in BP, 1 hr after dose, first day ([1]; 5 mg/kg os): -20 mm Hg | Change in BP, 5 hrs after dose, first day ([1]; 5 mg/kg os): -10 mm Hg | Change in BP, 1 hr after dose, fourth day ([1]; 5 mg/kg os): -32 mm Hg | Change in BP, 5 hrs after dose, fourth day ([1]; 5 mg/kg os): -28 mm Hg

CC(C)N1C[C@H](CC(C#N)C(N)=O)C[C@@H]2c3cccc4[nH]cc(c34)C[C@H]21 (stereo partly drawn) [Example 37, 2-Cyano-3-(6'-isopropylergoline-8'β)-propionamide]
Change in BP, 1 hr after dose, first day ([1]; 5 mg/kg os): -30 mm Hg | Change in BP, 5 hrs after dose, first day ([1]; 5 mg/kg os): -25 mm Hg | Change in BP, 1 hr after dose, fourth day ([1]; 5 mg/kg os): -45 mm Hg | Change in BP, 5 hrs after dose, fourth day ([1]; 5 mg/kg os): -35 mm Hg
